Source: US11780845B2 (Relay Therapeutics, Inc., priority 2019, dated 2023)

Legend:
SNU-16 = test: Cell SNU-16 assay; assay type: cell-based
FGFR2 = FGFR2 (Homo sapiens (Human), UniProt P21802); test: Biochemical FGFR2 Caliper assay
[1] = Homo sapiens, SNU-16, SNU-16 cells

Sequence of FGFR2 (P21802 22-821): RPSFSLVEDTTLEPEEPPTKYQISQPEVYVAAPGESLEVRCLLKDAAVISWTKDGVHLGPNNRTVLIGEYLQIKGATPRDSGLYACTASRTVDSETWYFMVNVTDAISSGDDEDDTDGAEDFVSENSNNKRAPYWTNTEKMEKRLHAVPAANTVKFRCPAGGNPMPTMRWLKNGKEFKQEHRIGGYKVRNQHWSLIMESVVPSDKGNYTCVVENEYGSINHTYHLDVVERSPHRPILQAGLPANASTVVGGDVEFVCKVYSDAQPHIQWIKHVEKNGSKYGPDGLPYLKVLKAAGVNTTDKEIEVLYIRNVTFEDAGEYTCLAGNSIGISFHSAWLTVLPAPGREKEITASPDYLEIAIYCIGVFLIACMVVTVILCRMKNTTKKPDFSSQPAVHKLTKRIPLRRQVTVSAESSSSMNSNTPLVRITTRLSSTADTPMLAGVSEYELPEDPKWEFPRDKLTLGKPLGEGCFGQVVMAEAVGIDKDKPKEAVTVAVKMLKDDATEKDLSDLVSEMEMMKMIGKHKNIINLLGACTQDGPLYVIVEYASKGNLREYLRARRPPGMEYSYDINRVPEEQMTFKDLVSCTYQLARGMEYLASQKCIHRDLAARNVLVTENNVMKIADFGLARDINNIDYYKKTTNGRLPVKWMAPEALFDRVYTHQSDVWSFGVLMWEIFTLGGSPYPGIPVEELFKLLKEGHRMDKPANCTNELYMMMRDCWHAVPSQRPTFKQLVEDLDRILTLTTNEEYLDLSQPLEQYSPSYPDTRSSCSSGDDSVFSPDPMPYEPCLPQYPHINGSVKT

Structure (SMILES)	IC50 (SNU-16; [1])	IC50 (FGFR2)	IC50 (SNU-16; SNU-16 cells)
C=CC(=O)N1CC[C@@H](c2c(-c3ccc(Oc4cccc(C)n4)cc3)c3c(N)ncnc3n2C)[C@H]1C (single isomer, unassigned) [Example 940]	1000 to 100000 nM	1000 to 100000 nM	–
C=CC(=O)N[C@@H]1CCc2cc(-c3c(-c4ccc(Oc5nccc(C)n5)cc4)c4c(N)ncnc4n3C)ccc21 (single isomer, unassigned) [Example 942]	250 to 1000 nM	250 to 1000 nM	–
C=CC(=O)N[C@@H]1CCc2ccc(-c3c(-c4ccc(Oc5nccc(C)n5)cc4)c4c(N)ncnc4n3C)cc2C1 (single isomer, unassigned) [Example 944]	1000 to 100000 nM	1000 to 100000 nM	–
C=CC(=O)N[C@H]1CCc2ccc(-c3c(-c4ccc(Oc5nccc(C)n5)cc4)c4c(N)ncnc4n3C)cc2C1 (single isomer, unassigned) [Example 945]	1000 to 100000 nM	1000 to 100000 nM	–
C#C[C@@H]1CCCN1C(=O)[C@H]1CC=C(c2c(-c3ccc(NC(=O)C(=C)C)cc3)n(C)c3ncnc(N)c23)CC1 (single isomer, unassigned) [Example 949]	1000 to 100000 nM	100 to 250 nM	–
C#C[C@H]1CCCN1C(=O)[C@H]1CC=C(c2c(-c3ccc(NC(=O)C(=C)C)cc3)n(C)c3ncnc(N)c23)CC1 (single isomer, unassigned) [Example 950]	1000 to 100000 nM	1000 to 100000 nM	–
C#C[C@H]1CCCN1C(=O)[C@@H]1CC=C(c2c(-c3ccc(NC(=O)C(=C)C)cc3)n(C)c3ncnc(N)c23)CC1 (single isomer, unassigned) [Example 953]	1000 to 100000 nM	< 100 nM	–
C=C(C)C(=O)Nc1ccc(-c2c(C3=CC[C@@H](C(=O)N4CCC[C@]45CCOC5)CC3)c3c(N)ncnc3n2C)cc1 (single isomer, unassigned) [Example 954]	–	< 100 nM	≤ 100 nM
C=C(C)C(=O)Nc1ccc(-c2c(C3=CC[C@H](C(=O)N4CCC[C@@]45CCOC5)CC3)c3c(N)ncnc3n2C)cc1 (single isomer, unassigned) [Example 955]	–	1000 to 100000 nM	250 to 1000 nM
C=C(C)C(=O)Nc1ccc(-c2c(C3=CC[C@H](C(=O)NC4CCCC4)CC3)c3c(N)ncnc3n2C)cc1 (single isomer, unassigned) [Example 957]	≤ 100 nM	100 to 250 nM	–
C=CC(=O)N[C@@H]1C[C@H]1c1c(-c2ccc(C(=O)N3CCCC3)cc2)c2c(N)ncnc2n1C (single isomer, unassigned) [Example 974]	1000 to 100000 nM	1000 to 100000 nM	–
C=CC(=O)N[C@H]1C[C@H]1c1c(-c2ccc(C(=O)N3CCCC3)cc2)c2c(N)ncnc2n1C (single isomer, unassigned) [Example 975]	1000 to 100000 nM	1000 to 100000 nM	–
C=C(C)C(=O)Nc1ccc(-c2c(C3=CC[C@H](C(=O)N4CCCCCC4)CC3)c3c(N)ncnc3n2C)cc1 (single isomer, unassigned) [Example 977]	≤ 100 nM	< 100 nM	–
C=C(C)C(=O)Nc1ccc(-c2c(C3=CC[C@@H](C(=O)N4CCc5ccccc54)CC3)c3c(N)ncnc3n2C)cc1 (single isomer, unassigned) [Example 985]	250 to 1000 nM	250 to 1000 nM	–
C=C(C)C(=O)Nc1ccc(-c2c(C3=CC[C@H](C(=O)N4CCc5ccccc54)CC3)c3c(N)ncnc3n2C)cc1 (single isomer, unassigned) [Example 986]	250 to 1000 nM	250 to 1000 nM	–
C=C(C)C(=O)Nc1ccc(-c2c(C3=CC[C@@]4(CC3)Cc3ccccc3C4=O)c3c(N)ncnc3n2C)cc1 (single isomer, unassigned) [Example 987]	1000 to 100000 nM	1000 to 100000 nM	–
C=C(C)C(=O)Nc1ccc(-c2c(C3=CC[C@]4(CC3)Cc3ccccc3C4=O)c3c(N)ncnc3n2C)cc1 (single isomer, unassigned) [Example 988]	≤ 100 nM	250 to 1000 nM	–
C=CC(=O)N[C@H]1CCN(c2cccc(-c3c(-c4ccc(Oc5cccc(C)n5)cc4)c4c(N)ncnc4n3C)c2)C1 (single isomer, unassigned) [Example 1031]	100 to 250 nM	< 100 nM	–
C=CC(=O)N[C@@H]1CCN(c2cccc(-c3c(-c4ccc(Oc5cccc(C)n5)cc4)c4c(N)ncnc4n3C)c2)C1 (single isomer, unassigned) [Example 1032]	≤ 100 nM	250 to 1000 nM	–
C=C(C)C(=O)Nc1ccc(-c2c(C3=CC[C@H](C(=O)N4CCCC4)CC3)c3c(N)ncnc3n2C)c(C)c1 (single isomer, unassigned) [Example 1034]	≤ 100 nM	100 to 250 nM	–
C=C(C)C(=O)Nc1ccc(-c2c(C3=CC[C@@H](C(=O)N4CCCC4)CC3)c3c(N)ncnc3n2C)c(C)c1 (single isomer, unassigned) [Example 1035]	≤ 100 nM	< 100 nM	–
C=C(C)C(=O)Nc1ccc(-c2c(C3=CC[C@H](C(=O)N4CC[C@@H]5C[C@@H]54)CC3)c3c(N)ncnc3n2C)cc1 (single isomer, unassigned) [Example 1038]	≤ 100 nM	< 100 nM	–
C=C(C)C(=O)Nc1ccc(-c2c(C3=CC[C@@H](C(=O)N4CC[C@H]5C[C@H]54)CC3)c3c(N)ncnc3n2C)cc1 (single isomer, unassigned) [Example 1039]	1000 to 100000 nM	1000 to 100000 nM	–
CN(C)C/C=C/C(=O)Nc1ccc(-c2c(C3=CC[C@H](C(=O)N4CCCC4)CC3)c3c(N)ncnc3n2C)cc1 (single isomer, unassigned) [Example 1042]	≤ 100 nM	< 100 nM	–
C=CC(=O)Nc1ccc(-c2c(C3=CC[C@@H](C(=O)N4CCCC4)CC3)c3c(N)ncnc3n2C)c(C)c1 (single isomer, unassigned) [Example 1102]	≤ 100 nM	< 100 nM	–
C=CC(=O)Nc1ccc(-c2c(C3=CC[C@@H](C(=O)N4CCCC4)CC3)c3c(C)ncnc3n2C)c(C)c1 (single isomer, unassigned) [Example 1106]	≤ 100 nM	< 100 nM	–
C=C1CCN(c2ccc(-c3c(C4=CC[C@@H](C(=O)N5CCCC5)CC4)c4c(N)ncnc4n3C)cc2)C1=O (single isomer, unassigned) [Example 1134]	100 to 250 nM	250 to 1000 nM	–

Second part, the compound after the results:

IC50 (SNU-16; [1])	IC50 (FGFR2)	IC50 (SNU-16; SNU-16 cells)	Structure (SMILES)
100 to 250 nM	250 to 1000 nM	–	C=CC(=O)N1CC[C@H](c2c(-c3ccc(Oc4cccc(C)n4)cc3)c3c(N)ncnc3n2C)[C@H]1C (single isomer, unassigned) [Example 941]
100 to 250 nM	250 to 1000 nM	–	C#C[C@@H]1CCCN1C(=O)[C@@H]1CC=C(c2c(-c3ccc(NC(=O)C(=C)C)cc3)n(C)c3ncnc(N)c23)CC1 (single isomer, unassigned) [Example 951]
≤ 100 nM	250 to 1000 nM	–	C=C(C)C(=O)Nc1ccc(-c2c(C3=CC[C@@H](C(=O)NC4CCCC4)CC3)c3c(N)ncnc3n2C)cc1 (single isomer, unassigned) [Example 958]
–	1000 to 100000 nM	1000 to 100000 nM	C=C(C)C(=O)Nc1ccc(-c2c(C3=CC[C@H](C(=O)N4CCC[C@@]45CCOC5)CC3)c3c(N)ncnc3n2C)cc1 (single isomer, unassigned) [Example 960]
–	1000 to 100000 nM	250 to 1000 nM	C=C(C)C(=O)Nc1ccc(-c2c(C3=CC[C@@H](C(=O)N4CCC[C@]45CCOC5)CC3)c3c(N)ncnc3n2C)cc1 (single isomer, unassigned) [Example 961]
≤ 100 nM	< 100 nM	–	C=CC(=O)Nc1ccc(-c2c(C3=CC[C@@H](C(=O)N4CCCC4)CC3)c3c(N)ncnc3n2C)cc1 (single isomer, unassigned) [Example 962]
≤ 100 nM	< 100 nM	–	C=CC(=O)Nc1ccc(-c2c(C3=CC[C@H](C(=O)N4CCCC4)CC3)c3c(N)ncnc3n2C)cc1 (single isomer, unassigned) [Example 963]
1000 to 100000 nM	1000 to 100000 nM	–	C=CC(=O)N[C@H]1C[C@@H]1c1c(-c2ccc(C(=O)N3CCCC3)cc2)c2c(N)ncnc2n1C (single isomer, unassigned) [Example 972]
1000 to 100000 nM	250 to 1000 nM	–	C=CC(=O)N[C@@H]1C[C@@H]1c1c(-c2ccc(C(=O)N3CCCC3)cc2)c2c(N)ncnc2n1C (single isomer, unassigned) [Example 973]
250 to 1000 nM	250 to 1000 nM	–	C=C(C)C(=O)Nc1ccc(-c2c(C3=CC[C@@H](C(=O)N4CCCCCC4)CC3)c3c(N)ncnc3n2C)cc1 (single isomer, unassigned) [Example 979]
250 to 1000 nM	250 to 1000 nM	–	C=C(C)C(=O)Nc1ccc(-c2c(C3=CC[C@@H](C(=O)N4CCC[C@H]4COC)CC3)c3c(N)ncnc3n2C)cc1 (single isomer, unassigned) [Example 981]
250 to 1000 nM	1000 to 100000 nM	–	C=C(C)C(=O)Nc1ccc(-c2c(C3=CC[C@H](C(=O)N4CCC[C@H]4COC)CC3)c3c(N)ncnc3n2C)cc1 (single isomer, unassigned) [Example 982]
250 to 1000 nM	1000 to 100000 nM	–	C=C(C)C(=O)Nc1ccc(-c2c(C3=CC[C@H](C(=O)N4CCCC45COC5)CC3)c3c(N)ncnc3n2C)c(C)c1 (single isomer, unassigned) [Example 1029]
≤ 100 nM	< 100 nM	–	C=C(C)C(=O)Nc1ccc(-c2c(C3=CC[C@@H](C(=O)N4CCCC45COC5)CC3)c3c(N)ncnc3n2C)c(C)c1 (single isomer, unassigned) [Example 1033]
≤ 100 nM	250 to 1000 nM	–	CN(C)C/C=C/C(=O)Nc1ccc(-c2c(C3=CC[C@@H](C(=O)N4CCCC4)CC3)c3c(N)ncnc3n2C)cc1 (single isomer, unassigned) [Example 1036]
≤ 100 nM	< 100 nM	–	C=C(C)C(=O)Nc1ccc(-c2c(C3=CC[C@H](C(=O)N4CC[C@H]5C[C@H]54)CC3)c3c(N)ncnc3n2C)cc1 (single isomer, unassigned) [Example 1043]
≤ 100 nM	< 100 nM	–	C=CC(=O)Nc1ccc(-c2c(C3=CC[C@H](C(=O)N4CCCC4)CC3)c3c(C)ncnc3n2C)cc1 (single isomer, unassigned) [Example 1107]
100 to 250 nM	250 to 1000 nM	–	C=C1CCN(c2ccc(-c3c(C4=CC[C@H](C(=O)N5CCCC5)CC4)c4c(N)ncnc4n3C)cc2)C1=O (single isomer, unassigned) [Example 1137]
